Experimental findings from patent US20240383846A1, “MERCAPTOACETOPHENONE AMINOHYDRAZONES, THEIR SALTS AND USES THEREOF” (priority 2021, published 2024) are described below.

Assay [1] concerns MRSA USA300. The experiment in a line: MIC by broth microdilution (CLSI) against MRSA USA300. The conditions noted are these: for MIC: Staphylococcus aureus, read-out: MRSA USA300 MIC. Format: cell-based, Staphylococcus aureus. The text has this: (§1) Table 1 summarizes the antibacterial activity of certain compounds, according to the present invention, as calculated by minimum inhibitory concentration (MIC) values against one multidrug resistant gram-positive strain (MRSA USA300), and one multidrug resistant gram-negative (Acinetobacter baumannii AB5075). The later bacterial strain is listed at the top of the WHO's critical priority list for antibiotic development. Preferred compounds, according to the present invention are example compounds of formulas 72, 74, and 75, and, in particular, example compound of formula 75.
(§2) The minimum inhibitory concentration (MIC) of tested compounds and control antibiotics was determined using the broth microdilution method according to the guidelines outlined by the Clinical and Laboratory Standards Institute (CLSI, Methods for Dilution Antimicrobial Susceptibility Tests for Bacteria That Grow Aerobically; Approved Standard. January 2012; Vol. Ninth Edition M07-A9. 32 No. 2.). Bacterial strains were grown aerobically overnight on tryptone soy agar plates at 37° C. Afterwards, a bacterial solution equivalent to 0.5 McFarland standard was prepared and diluted in cation-adjusted Mueller-Hinton broth (CAMHB) to achieve a bacterial concentration of about 5×10^5 CFU/mL and seeded in 96-well plates. Compounds and control drugs were added in the first row of the 96-well plates and serially diluted along the plates. Plates were then, incubated aerobically at 37° C. for 18-20 hours.
Background: In broth dilution the organism is exposed to a series of concentrations in liquid medium.

The test system of the next assay is A. baumannii AB5075. In words: MIC by broth microdilution (CLSI) against A. baumannii AB5075. Format: cell-based, Acinetobacter baumannii. The conditions noted are these: for MIC: Acinetobacter baumannii.
Description: as §1, §2

The test system of assay [2] is MRSA USA300. In words: Multi-step resistance experiment, 14 consecutive passages. Format: cell-based, Staphylococcus aureus. As for the experimental part: A multi-step resistance experiment was conducted, with example compound of formula 75. Initially, the MICs of heptyl compound and rifampicin, as the control antibiotic, were determined against MRSA USA300 using the broth microdilution method. Then, the strain was subcultured for fourteen consecutive passages over two weeks, with increasing concentrations of the tested agents, to detect the shift in the MIC, if any.
Multi-step resistance testing was conducted as reported earlier (PLOS One, 12 (2017) e0182821). A broth microdilution assay was used to determine the MIC for the MRSA strain USA300 after being exposed for 14 consecutive passages to either the example compound of formula 75, or rifampicin, as a control antibiotic. Briefly, different concentrations of TBT4 and rifampicin were prepared in 10 mL Mueller-Hinton (MH) broth (0.125 to 32 μg/ml and 0.003 to 1024 μg/mL, respectively) and they were inoculated with 10 μL of an overnight culture of S. aureus strain USA300 and then incubated at 37° C., with shaking at 180 rpm, for 24 h. […] Resistance was classified as a greater than four-fold increase in the initial MIC (Antimicrob. Agents Chemother., 55 (2011) 1177-1181).

A further assay has as its system MRSA strain USA300. In words: Murine skin infection model, subcutaneous MRSA infection, topical treatment. Format: in vivo. The conditions noted are these: mice, twice daily for four days; for bacterial counts from skin lesions compared with PJ group / appearance of skin lesions (visual comparison): 2% topical; for bacterial counts from skin lesions compared with PJ group: *p≤0.05; for appearance of skin lesions (visual comparison): vs petroleum jelly vehicle. The protocol:
The effectiveness of certain compounds, according to the present invention, was assessed using a murine skin infection model, conducted as previously described (Tseng, C. W. et. al. Subcutaneous infection of methicillin resistant Staphylococcus aureus (MRSA), J. Vis. Exp., (2011) 2528). The effect of example compound of formula 75 was assessed against skin infection caused by methicillin-resistant Staphylococcus aureus (MRSA), the main causative agent of diabetic foot ulcer. Within 72 hours post-subcutaneous infection with MRSA strain USA300, the backs of the mice started showing evident lesions. At this point, treatment regimen started for the three groups of mice, for four days, twice daily, with petroleum jelly (PJ) or petroleum jelly with 2% example compound of formula 75 or 2% fusidic acid ointment (FA). […] The mice with plain vehicle (PJ) applied throughout the experiment had ulcerated lesions and visible skin damage with demarcated red prominent edges, as shown in FIG. 2A.

The mark [3] stands for this setting: broth microdilution, CAMHB, 37° C., 18-20 hours.
Where [4] appears, read: AB5075, broth microdilution, CAMHB, 37° C., 18-20 hours, read-out: A. baumannii AB5075 MIC.
Where [5] appears, read: comparison of MIC values of Table 1.
Setting [6] is: end of the experiment (fourteen passages).

Values after ≈ are worked out from the molar mass of the structure shown. Like-named read-outs stand apart in the source and are kept apart here.

Take `CCCSc1ccc(/C(C)=N/NC(=N)N)cc1` [Example compound of formula 68]: the “MRSA USA300 MIC” value in the assay with MRSA USA300 [1] (setting [3]) is on record as “No inhibition”. Moreover, the “A. baumannii AB5075 MIC” value in the assay with A. baumannii AB5075 (setting [3]) is given as “No inhibition”.
By MIC is commonly meant the smallest concentration in the dilution series that meets the test's criterion for growth inhibition. `CCCCSc1ccc(/C(C)=N/NC(=N)N)cc1` [Example compound of formula 69]: the MIC in the assay with MRSA USA300 [1] (setting [3]) is 8 µg/mL; in the assay on A. baumannii AB5075 (setting [4]), 16 µg/mL.
Regarding `C=CCCSc1ccc(/C(C)=N/NC(=N)N)cc1` [Example compound of formula 70], the MIC in the assay on MRSA USA300 [1] (setting [3]) and in the assay on A. baumannii AB5075 (setting [4]) was 32 µg/mL each time.
For `CCCCCSc1ccc(/C(C)=N/NC(=N)N)cc1` [Example compound of formula 71], the minimal inhibitory concentration (MIC) came out at 8 µg/mL with MRSA USA300 [1] (setting [3]) and 16 µg/mL in the assay with A. baumannii AB5075 (setting [4]).
For `CCCCCCCCSc1ccc(/C(C)=N/NC(=N)N)cc1` [Example compound of formula 72], in that order: 1 µg/mL and 8 µg/mL.
In the case of `CCCCCCCCCSc1ccc(/C(C)=N/NC(=N)N)cc1` [Example compound of formula 73], the MIC in the assay on MRSA USA300 [1] (setting [3]) was found to be 2 µg/mL; with A. baumannii AB5075 (setting [4]), 16 µg/mL.
`CCCCCCSc1ccc(/C(C)=N/NC(=N)N)cc1` [Example compound of formula 74, 2-(1-(4-(Hexylthio)phenyl)ethylidene)hydrazine-1-carboximidamide]: the MIC with MRSA USA300 [1] (setting [3]) is 0.5 µg/mL; in the assay on A. baumannii AB5075 (setting [4]), 4 µg/mL. The “potency against S. aureus USA300 relative to example compound of formula 75” value in the assay on MRSA USA300 [1] (setting [5]) was “maintained the same potency”. Also, the “potency against tested gram-negative pathogen (A. baumannii AB5075) relative to example compound of formula 75” value in the assay with A. baumannii AB5075 (setting [5]) is listed as “four times less potent”.
Consider `CCCCCCCSc1ccc(/C(C)=N/NC(=N)N)cc1` [Example compound of formula 75, 2-(1-(4-(Heptylthio)phenyl)ethylidene)hydrazine-1-carboximidamide], for which the MIC was found to be 0.5 µg/mL in the assay with MRSA USA300 [1] (setting [3]) and 1 µg/mL with A. baumannii AB5075 (setting [4]). For the same compound, the “increase in MIC against MRSA USA300” value is on record as 2 fold in the assay on MRSA USA300 [2] (eighth passage), “remained stable till the end of the experiment” with MRSA USA300 [2] (setting [6]) and “one-fold” in the assay on MRSA USA300 [2] (on the fifth passage). Further, the “decrease in bacterial loads recovered from skin lesions” value with MRSA strain USA300 (2% in petroleum jelly, topical) is on record as around 1 log cycle. Also, the “reduction in bacterial loads recovered from skin lesions” value in the assay with MRSA strain USA300 (2% in petroleum jelly, topical) is given as 90%. The “bacterial counts from skin lesions compared with PJ group” value in the assay on MRSA strain USA300 was “significantly lower than the counts obtained from the PJ group”. For the same compound, the “appearance of skin lesions (visual comparison)” value in the assay with MRSA strain USA300 was “showed signs of lesion healing and better recovery”.
Take `C/C(=N\NC(=N)N)c1ccc(SCC(C)C)cc1` [Example compound of formula 76]: the MIC in the assay on MRSA USA300 [1] (setting [3]) turned out to be 8 µg/mL; in the assay with A. baumannii AB5075 (setting [4]), 16 µg/mL.
The matching figures for `C/C(=N\NC(=N)N)c1ccc(SCCC(C)C)cc1` [Example compound of formula 77]: 4 µg/mL and 8 µg/mL.
Turning to `CCC(CC)CSc1ccc(/C(C)=N/NC(=N)N)cc1` [Example compound of formula 78], the “MRSA USA300 MIC” value in the assay on MRSA USA300 [1] (setting [3]) is given as “No inhibition”. Moreover, the “A. baumannii AB5075 MIC” value in the assay with A. baumannii AB5075 (setting [3]) is “No inhibition”.
As for `C/C(=N\NC(=N)N)c1ccc(SC2CCCC2)cc1` [Example compound of formula 79], the results for the MIC in the assay with MRSA USA300 [1] (setting [3]) and in the assay on A. baumannii AB5075 (setting [4]) were 8 µg/mL and 16 µg/mL, respectively.
For `C/C(=N\NC(=N)N)c1ccc(SC2CCCCC2)cc1` [Example compound of formula 80], in that order: 4 µg/mL and 8 µg/mL.
The matching figures for `C/C(=N\NC(=N)N)c1ccc(SCC2CCC2)cc1` [Example compound of formula 81]: 8 µg/mL and 16 µg/mL.
Turning to `C/C(=N\NC(=N)N)c1ccc(SCC2CCCCC2)cc1` [Example compound of formula 82], the “MRSA USA300 MIC” value in the assay with MRSA USA300 [1] (setting [3]) was “No inhibition”. In the assay on A. baumannii AB5075 (setting [3]), the “A. baumannii AB5075 MIC” value is recorded as “No inhibition”.
For `C/C(=N\NC(=N)N)c1ccc(SCc2ccccc2)cc1` [Example compound of formula 83], the results for the minimal inhibitory concentration (MIC) in the assay with MRSA USA300 [1] (setting [3]) and in the assay with A. baumannii AB5075 (setting [4]) were 4 µg/mL and 16 µg/mL, respectively.
For `C/C(=N\NC(=N)N)c1ccc(SCCc2ccccc2)cc1` [Example compound of formula 84], in that order: 2 µg/mL and 8 µg/mL.
Consider `CN[C@H](CC(C)C)C(=O)N[C@H]1C(=O)N[C@@H](CC(N)=O)C(=O)N[C@H]2C(=O)N[C@H]3C(=O)N[C@H](C(=O)N[C@H](C(=O)O)c4cc(O)cc(O)c4-c4cc3ccc4O)[C@H](O)c3ccc(c(Cl)c3)Oc3cc2cc(c3O[C@@H]2O[C@H](CO)[C@@H](O)[C@H](O)[C@H]2O[C@H]2C[C@](C)(N)[C@H](O)[C@H](C)O2)Oc2ccc(cc2Cl)[C@H]1O` [Vancomycin, reference compound], for which the MIC in the assay with MRSA USA300 [1] is 1 µg/mL (≈ 0.69 µM); in the assay with A. baumannii AB5075 (AB5075, read-out: A. baumannii AB5075 MIC), above 128 µg/mL.
As for `CC(=O)O[C@H]1C[C@@]2(C)[C@@H](C[C@@H](O)[C@H]3[C@@]4(C)CC[C@@H](O)[C@@H](C)[C@@H]4CC[C@@]32C)/C1=C(\CCC=C(C)C)C(=O)O` [fusidic acid, reference compound], in the assay with MRSA strain USA300, the “bacterial counts from skin lesions compared with PJ group” value was “significantly lower than the counts obtained from the PJ group”; the “appearance of skin lesions (visual comparison)” value was “showed signs of lesion healing and better recovery”.
Regarding `CO[C@H]1/C=C/O[C@@]2(C)Oc3c(C)c(O)c4c(O)c(c(/C=N/N5CCN(C)CC5)c(O)c4c3C2=O)NC(=O)/C(C)=C\C=C\[C@H](C)[C@H](O)[C@@H](C)[C@@H](O)[C@@H](C)[C@H](OC(C)=O)[C@@H]1C` [rifampicin, reference compound], the “increase in MIC against MRSA USA300” value in the assay on MRSA USA300 [2] (eighth passage) is reported as 7 fold; in the assay with MRSA USA300 [2] (setting [6]), 13 fold.
For Gentamycin [reference compound], the “A. baumannii AB5075 MIC” value in the assay on A. baumannii AB5075 (setting [3]) was 1 µg/mL.
